Data from patent US20260091086A1, “POLYPEPTIDE COMBINATIONS AND USES THEREOF” (MEDIMMUNE LIMITED, priority 2024, published 2026).
Numbered stars: 1 amine (or outer) side, 2 acyl side, 3 side chain; on linkers, the order of the positions; unused ones are H or OH. Bridge positions count the residues as written; N and C are the ends. Square brackets hold non-standard residues; d marks the D form. Side chains are listed from the residue outwards. Ends that are not written are not given here. * marks the point of attachment. C18 diacid = O=C(O)CCCCCCCCCCCCCCCCC(=O)*; γGlu = O=C(O)[C@H](CCC(=O)[*:2])N[*:1]; αMeF = C[C@](N)(Cc1ccccc1)C(=O)O

Assays:
chow fed lean rats = test: Example 3: acute gastric emptying by X-ray fluoroscopic quantification; type: in vivo, rat; details: acute SC
Method: Study design: DIO male pair-housed rats fed a 32.5% high-fat diet (D12266B) for 7 weeks reached a mean body weight (BW) of ˜595 g. Rats were dosed SC daily for 28 days with vehicle (Vh), GLP-1/GCG dual agonist (1.5 or 5 nmol/kg), LAA (2.5 or 7.5 nmol/kg), or combination (1.5+2.5 nmol/kg, 1.5+7.5 nmol/kg, 5+2.5 nmol/kg, or 5+7.5 nmol/kg, respectively). Food intake (FI) and BW were measured daily. In chow fed lean rats, gastric emptying (GE) was measured via X-ray fluoroscopic quantification following SC injections of Vh, GLP-1/GCG dual agonist at 1, 3, or 10 nmol/kg or LAA at 1, 3, or 10 nmol/kg. In a subsequent acute GE study, lean rats received a single dose of Vh, GLP-1/GCG dual agonist (2 nmol/kg), LAA (2 nmol/kg) or GLP-1/GCG dual agonist+LAA combination (2+2 nmol/kg). In this experiment, the LAA was that of SEQ ID NO: 11, and the GLP-1/GCG dual-agonist was cotadutide.

DIO rat = test: Example 3: repeat dose DIO rat gastric emptying study; type: in vivo; details: 2 nmol/kg monotherapy, beyond 7 days of treatment
Text: Study Design: […] X-ray fluoroscopic quantification was used to assess gastric emptying. In this experiment, the LAA was that of SEQ ID NO: 11, and the GLP-1R agonist was semaglutide.

DIO Sprague-Dawley rats [1] = test: Example 6: treatment switch / add-on study after GLP-1RA lead-in; type: in vivo, rat; details: for body weight change, % of day 0 body weight: day 30
Method: Study Design: Male DIO Sprague-Dawley rats were fed a high-fat diet (32.5% kcal fat, D12266B; Research Diets) for approximately 8 weeks prior to study start. Rats were dosed SC for 15 days with Vehicle (n=16) or GLP-1RA (n=32) (5 nmol/kg) once-daily (QD). Beginning on day 16 rats initially treated with Vehicle either continued with Vehicle (n=8) or were switched to LAA (7.5 nmol/kg, n=8) administration. Rats initially receiving GLP-1RA treatment either continued with GLP-1RA, were switched to LAA (7.5 nmol/kg), were switched to Vehicle, or continued with GLP-1RA with addition of LAA treatment (7.5 nmol/kg) for duration of study (day 30), with n=8/group. Body weight was measured daily through-out study. Data reported as mean±standard error of the mean (SEM); data analysis performed using GraphPad Prism In this experiment, the LAA was that of SEQ ID NO: 11, and the GLP-1R agonist was semaglutide.

DIO Sprague-Dawley rats [2] = test: Example 6 Study 3: 28-day treatment and 14-day wash-out; type: in vivo, rat
Method: Study 3 Design: Male DIO Sprague-Dawley rats (Charles River Laboratories) were fed a high-fat diet (32.5% kcal fat, D12266B; […] Rats were dosed SC QD for 28 days with Vehicle (n=16), GLP-1RA at 5 nmol/kg (n=16), LAA (“SARA”) at 7.5 nmol/kg (n=16), or GLP1RA+LAA at 5+7.5 nmol/kg respectively (n=16). Following 28 days of treatment half the animals per group stopped treatment and were allowed to wash-out for 14 days (n=8/group), while the remaining animals per group were euthanized with blood/tissues collected. Body weight and food intake were measured daily, and body composition was measured before study start, on day 27 and then again on day 42. Data reported as mean±standard error of the mean (SEM); data analysis performed using GraphPad Prism. In this experiment, the LAA was that of SEQ ID NO: 11, and the GLP-1RA was semaglutide.

DIO Sprague-Dawley rats [3] = test: Example 6 Study 2: 4-week LAA, GLP-1RA or both; type: in vivo, rat; details: QD SC 4 weeks; LAA 7.5 nmol/kg, GLP-1RA 5 nmol/kg, or both; FIG. 5H
Method: Study 2 Design: Male DIO Sprague-Dawley rats were injected QD SC with either vehicle, LAA 7.5 nmol/kg, GLP-1RA 5 nmol/kg, or both, for 4 weeks. Monotherapy doses were selected to achieve matching BW loss. BW and food intake were measured daily, and body composition was measured at baseline and end of study.

DIO Sprague-Dawley rats [4] = test: Example 3: 28-day body weight study in DIO rats; type: in vivo, rat; details: day 28; LAA 7.5 nmol/kg SC QD
Method: Study Design: Male DIO Sprague-Dawley rats were fed a high-fat diet (32.5% kcal fat, D12266B; Research Diets) for approximately 8 weeks prior to study start. Rats were dosed once daily SC for 28 days with Vehicle, GLP-1/GCG (1.5 nmol/kg or 5 nmol/kg), LAA (7.5 nmol/kg) or a combination of GLP-1/GCG and LAA (1.5 and 7.5 nmol/kg, or 5 nmol/kg and 7.5 nmol/kg, respectively) with an n=6/group. Body weight was monitored daily throughout the study. Data reported as mean±standard error of the mean (SEM); data analysis performed using GraphPad Prism-statistical analysis performed using One-way ANOVA with Tukey ad hoc analysis (*p<0.05, **p<0.01, ***0<0.001, ****p<0.0001). In this experiment, the LAA was that of SEQ ID NO: 11, and the GLP-1/GCG dual-agonist was cotadutide.

[5] = end of study, after initial GLP-1RA: GLP-1RA continued, switched to LAA, or Combination

K(γE-γE-C18diacid)[CNTATC]ATQRLANFLRHSSNN(αMePhe)GPILPPTEVGSNTY-amide (K([γGlu-γGlu-C18 diacid])CNTATCATQRLANFLRHSSNN[αMeF]GPILPPTEVGSNTY-NH2; disulfide 2-7) [LAA]
GE AUC as % of Vehicle (chow fed lean rats; 1 nmol/kg): 101%
GE AUC as % of Vehicle (chow fed lean rats; 3 nmol/kg): 34%
GE AUC as % of Vehicle (chow fed lean rats; 10 nmol/kg): 8%
GE delay on repeat dosing (DIO rat): maintained GE delay beyond 7 days of treatment
total lean mass at the end of the study (DIO Sprague-Dawley rats [1]; FIG. 5E): trend towards the animals switching to LAA therapy preserving the most lean mass
fasting leptin levels at the end of the study (DIO Sprague-Dawley rats [1]; compared to discontinuing therapy at day 15, FIG. 5F): significantly reduced
body weight change, % of day 0 body weight (DIO Sprague-Dawley rats [1]; switched from GLP-1RA to LAA 7.5 nmol/kg on day 16): −3.4%
body weight change, % of day 0 body weight (DIO Sprague-Dawley rats [1]; switched from Vehicle to LAA 7.5 nmol/kg on day 16): +1.1%
Fat (DIO Sprague-Dawley rats [1]; [5]): 103.70 g
Fat, Δ from Control (DIO Sprague-Dawley rats [1]; [5]): 41.95 g
change in body weight normalized to Vehicle (DIO Sprague-Dawley rats [1]; end of study, switched from GLP-1RA to LAA): −12%
change in body weight normalized to Vehicle (DIO Sprague-Dawley rats [1]; end of study, switched from VH to LAA): −7.1%
Fat, Δ from Vehicle (DIO Sprague-Dawley rats [1]; end of study, vs group switched from GLP-1RA to Vehicle): 27.21 g
inhibition of food intake compared to vehicle (DIO Sprague-Dawley rats [2]; SC QD 28 days, LAA 7.5, GLP-1RA 5, or 5+7.5 nmol/kg): ~−20%
BW loss compared to vehicle (DIO Sprague-Dawley rats [2]; SC QD 28 days, LAA 7.5, GLP-1RA 5, or 5+7.5 nmol/kg, FIG. 5I): −9.3%
lean mass change (DIO Sprague-Dawley rats [2]; baseline to day 27, FIG. 5K): preservation of lean mass
fat mass change from baseline (DIO Sprague-Dawley rats [2]; baseline to day 27, LAA 7.5, GLP-1RA 5, or 5+7.5 nmol/kg, FIG. 5J): -17.7 g
fat mass change from baseline (DIO Sprague-Dawley rats [3]): greater loss of fat mass than GLP-1RA monotherapy
mean change in body weight normalized to Vehicle (DIO Sprague-Dawley rats [4]): −13.7%
